# According to PubChem BioAssay AID493085 (Broad Institute, 2011):
# Inconclusive results are not listed. Activity calls are given as the source filed them.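 Rule for the calls: active = falling-signal curve with half-maximal concentration at or below ten times the top tested dose; inconclusive = flat fit at 30 to 70% inhibition, or poor fit; inactive = signal rise, flat within 30%, or potency beyond limit.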
# System: NIH3T3 R4 HSE-GFP/Tet-RFP reporter, fluorescence, 48 h
# Test: dox-induced RFP signal loss in R4-3T3 cells – cell-based, NIH3T3 R4, HSE-GFP and Tet-On RFP, cherry-pick, set 3, dose response (AID 493085);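 note: cells heat shocked 2 h at 42 °C with doxycycline to induce reporters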
row,SMILES,AC50
1,CSc1ccc(CN(C)Cc2cc(=O)oc3c(C)c(C)ccc23)cc1,17.1 µM
2,O=C(CCl)Nc1cc(SCC(O)CO)cc([N+](=O)[O-])c1 (configuration not stated),13.7 µM
3,CCOc1cc(C(=O)NCc2ccccc2)ccc1OCC(=O)N1CCOCC1,> 19.5 µM (inactive)
4,Cc1sc2ncnc(NCCc3ccc(S(N)(=O)=O)cc3)c2c1C,0.185 µM
5,Cc1ccc(OCC(=O)c2cc(C)n(-c3ccccc3)c2C)c([N+](=O)[O-])n1,8.65 µM
6,O=C(Nc1ccccc1N1CCCCC1)C1CCN(C(=O)c2ccc(Cl)cc2)CC1,> 19.5 µM (inactive)
7,CCNC(=S)N(C)CCc1cc2c(c(OC)c1C=C1C(=O)N(C)C(=O)N(C)C1=O)OCO2,> 19.5 µM (inactive)
8,Cc1cccc(C(=O)NC(=S)N2CCN(c3ccc([N+](=O)[O-])cc3)CC2)c1,> 19.5 µM (inactive)
9,c1ccc2c(c1)OCC(c1csc3ncnc(N4CCOCC4)c13)O2 (configuration not stated),16.6 µM
10,Cn1c(-c2nonc2N)nc2ccccc21,> 19.5 µM (inactive)
11,Cc1nn(-c2ccccc2)c(Cl)c1C(=O)N1CCN(c2ncnc3c2cnn3-c2ccccc2)CC1,6.77 µM
12,CCC(Sc1nc(C)cc(C)n1)C(=O)NC1=NN=C(c2ccc(C)cc2)CS1 (configuration not stated),14.8 µM
13,N#CCc1nn(-c2ccccc2)c2ncnc(N)c12,> 19.5 µM (inactive)
14,CC1=C(C(=O)OCc2ccc3c(c2)OCO3)C(c2ccc(F)cc2)NC(=O)N1 (configuration not stated),0.27 µM
15,Oc1ccc(CN2CCCc3ccccc32)c2cccnc12,4.67 µM
16,CCOc1cc2c(cc1OCC)C(c1ccc(OC)cc1)N(c1ccccc1)C(=O)C2 (configuration not stated),> 19.5 µM (inactive)
17,O=[N+]([O-])c1cnc(Sc2ccncn2)s1,13.1 µM
18,c1ccc(OCCSc2nc3ccccc3o2)cc1,> 19.5 µM (inactive)
19,C(=N\NC1=Nc2cccc3cccc1c23)/c1ccccn1,0.95 µM
20,O=C(c1nnsc1S(=O)(=O)c1ccc(Cl)cc1)N1CCOCC1,17.3 µM
21,Cc1cc(C)c(S(=O)(=O)/N=C2\C=C(Nc3ccc(C(=O)O)cc3)C(=O)c3ccccc32)c(C)c1,4.97 µM
22,Cc1ccc(-c2cn(-c3ccccc3)c(=S)[nH]2)cc1C,> 19.5 µM (inactive)
23,CCOc1ccc(-n2c(C)c(C(C)=O)c3cc(OC(C)=O)ccc32)cc1,2.24 µM
24,OCCCNc1nccc(-c2cc(Nc3cccc(Cl)c3)ncn2)n1,0.354 µM

row,SMILES,AC50
1,Cc1nc(NCc2ccco2)c2c(C)c(C)sc2n1,0.435 µM
2,CCCCCCc1cc2cc(S(=O)(=O)c3ccc(F)c(Cl)c3)c(=O)oc2cc1O,1.52 µM
3,Cn1c(=O)c([N+](=O)[O-])c(Cl)c2ccccc21,11.4 µM
4,COc1ccc(C[C@H]2NC[C@H](O)[C@H]2OC(C)=O)cc1,0.171 µM
5,COc1ccc2c(c1)c(CC(=O)Nc1nnc(C3CC3)s1)c(C)n2C(=O)c1ccc(Cl)cc1,0.284 µM
6,CCCCCn1c(=O)c(C(=O)Nc2ccccn2)c(O)c2ccccc21,1.4 µM
7,COc1ccc(C(=O)c2c(C(F)(F)F)oc3c2C(=O)c2ccccc2C3=O)cc1,2.89 µM
8,CC(C)c1ccc(-c2nc3ccccc3s2)cc1,> 19.5 µM (inactive)
9,Cc1ccc(S(=O)(=O)c2ncccc2[N+](=O)[O-])cc1,16.5 µM
10,O=C(CCCCCn1c(=S)[nH]c2cc3c(cc2c1=O)OCO3)N1CCN(C(=O)c2ccco2)CC1,> 19.5 µM (inactive)
11,CCOc1c2ccc(C(=O)NCc3ccccc3OC)cc2nn1CC,> 19.5 µM (inactive)
12,O=C1C(Cl)=C(Nc2ccc3cn[nH]c3c2)C(=O)c2ccccc21,5.26 µM
13,CCOc1cc(C(=S)N2CCOCC2)ccc1OS(=O)(=O)c1ccc(OC)cc1,16.1 µM
14,CCN1C/C(=C/c2ccc(OC)c(O)c2)C(=O)/C(=C/c2ccc(OC)c(O)c2)C1,1.8 µM
15,CS(=O)(=O)c1nc(-c2ccccc2)cc(C(F)(F)F)n1,1.81 µM
16,O=S(=O)(Nc1cccc(Oc2cnccn2)c1)c1ccc(F)cc1,> 19.5 µM (inactive)
17,Cc1nc2c(-c3ccccc3)c(C)[nH]n2c(=O)c1Cl,> 19.5 µM (inactive)
18,N#CC1=C(N)C(C#N)(C#N)C(c2cccnc2)C2CC(c3ccccc3)CC=C12 (configuration not stated),19.2 µM
19,CCc1ccc(S(=O)(=O)/N=C2\C=C(Nc3ccc(O)cc3)C(=O)c3ccccc32)cc1,1.83 µM
20,COCC1CCCCN1C(=O)c1cc(COc2ccc3ncccc3c2)on1 (configuration not stated),0.448 µM
21,COc1ccccc1-c1cc(C(F)(F)F)nc(S(=O)(=O)CCCC(=O)NCc2ccc(F)cc2)n1,5.34 µM
22,CN1C(C(=O)Nc2ccc(OC(F)(F)F)cc2)=CC(c2cccs2)=NS1(=O)=O,17.7 µM
23,O=[N+]([O-])c1ccc(S(=O)(=O)c2ccccc2)nc1,19.3 µM
